Source: PubChem BioAssay (NCI)
“And” between values parts separate entries of the source, which are not always exact repeats. Equal entries are not always repeated.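 Growth conditions: 96-well plates. Treatment: test compound, 48 hours, 5 concentrations. Analysis: linear interpolation between bracketing concentrations; unreached endpoints set to highest concentration. GI50 marks 50% less growth. The concentration for full growth arrest is given as TGI.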 Where a SMILES comes first, the peptide text is derived from it. [ ]: non-standard residue; d: D form. Phe(ol) = N[C@H](CO)Cc1ccccc1; Aib = CC(C)(N)C(=O)O

System: MDA-MB-468 breast
Experiment: NCI anticancer screen, dose series, 48 h

| Compound | GI50 | TGI |
| --- | --- | --- |
| CC(C)(C)n1cc(-c2ccnc(NCCCNS(=O)(=O)c3cccc4ccccc34)c2)c(-c2cccc(O)c2)n1 | 2040 nM | 5390 nM |
| O=C1c2ccc3c4c(ccc(c24)C(=O)N1CCCCO)C(=O)N(CCCCO)C3=O | 1210 nM | 3220 nM |
| CNC(=O)c1sc(-n2cnc3cc(OC)c(OC)cc32)cc1OCc1ccccc1C(F)(F)F | > 19000 nM | > 25000 nM |
| CO/N=C1\CCc2c(sc(NC(=O)c3cccc(C(F)(F)F)c3)c2C(N)=O)C1 | 1500 nM | 5910 nM |
| O=C(/C=C/c1ccco1)Nc1ncc(Cc2cc(Cl)ccc2Cl)s1 | 150 nM | > 46000 nM |
| CC(=O)NC(C)(C)C(=O)N1CCC[C@H]1C(=O)NC(C)(C)C(=O)N[C@@H](C)C(=O)NC(C)(C)C(=O)NC(C)(C)C(=O)N[C@@H](CCC(N)=O)C(=O)NC(C)(C)C(=O)N[C@H](C(=O)NC(C)(C)C(=O)NCC(=O)N[C@@H](CC(C)C)C(=O)NC(C)(C)C(=O)N1CCC[C@H]1C(=O)N[C@H](C(=O)NC(C)(C)C(=O)NC(C)(C)C(=O)N[C@@H](CCC(N)=O)C(=O)N[C@@H](CCC(N)=O)C(=O)N[C@H](CO)Cc1ccccc1)C(C)C)C(C)C (Ac-[Aib]P[Aib]A[Aib][Aib]Q[Aib]V[Aib]GL[Aib]PV[Aib][Aib]QQ[Phe(ol)]) | 209 nM | 2360 nM |
| COc1cc(C(=O)/C=C/c2c[nH]c3ccccc23)cc(OC)c1OC | 85.7 nM | 1610 nM |
| COC(=O)c1sc(-n2cnc3cc(OC)c(OC)cc32)cc1OCc1ccccc1C(F)(F)F | 3720 nM | > 25000 nM |
| O=C(CC1(O)C(=O)Nc2ccc(Cl)cc21)c1ccc(C(=O)NCC2CCC3(CC2)OOC2(CCCCC2)OO3)cc1 (centres undefined) | 2120 nM | 5660 nM |
| CC1CCc2c(C(=O)Nc3ncc(Cc4cccc([N+](=O)[O-])c4)s3)csc2C1 (centres undefined) | 345 nM | > 100000 nM |
| O=C(NCCN1CCOCC1)c1cc2c(Oc3ccc(NC(=O)C4(C(=O)Nc5ccc(F)cc5)CC4)cc3)ccnc2[nH]1 | 2310 nM | 13600 nM |
| N#Cc1ccc2c(-c3ccnc(NC4CC4)n3)c(-c3ccc(F)cc3)nn2c1 | > 24200 nM | > 25000 nM |
| ClC/C=C/CSc1ncnc2nc[nH]c12 | > 100000 nM | > 100000 nM |
| COc1cc(/C=N\Nc2ccccc2)ccc1OC(=O)c1ccccc1 | 2740 nM | 34800 nM |
| C#Cc1nc(C2=C(C)/C(=N/OCc3ccccc3)CC2)cs1 | 17800 nM | 94700 nM |
| COc1cc(/C=N/NC(=O)c2cnn3c2NC(c2ccccc2)C3)ccc1OCc1ccccc1 (centres undefined) | 318 nM | 2160 nM |
| CC(Nc1c(C#N)cnc2ccc(-c3cncc(O)c3)cc12)c1ccccc1 (centres undefined) | 913 nM | 3430 nM |
| NS(=O)(=O)c1cccc(Nc2cc(-c3ccc(F)cc3)[nH]n2)c1 | > 23600 nM | > 25000 nM |
| CCNC(=O)N1CCc2cc(OC)c(OCCc3ccc(OC)cc3)cc2C1c1ccc([N+](=O)[O-])cc1C (centres undefined) | 1370 nM | 4780 nM |
| Cc1cnc(C(=O)Nc2nc3ccc(S(=O)(=O)Nc4ccc(C(C)(C)C)cc4)cc3[nH]2)cn1 | 270 nM | 1730 nM |
| Oc1ccccc1/C=N\NC(=S)Nc1ccc(F)cc1 | 2530 nM | 26500 nM |
| N#Cc1cnn(C(=O)c2nn(-c3ccc(Cl)cc3)cc2O)c1N | 948 nM | 15100 nM |
| COc1ccc(/C(=C(\c2ccccc2)[N+](=O)[O-])c2ccc(OCCN3CCCC3)cc2)cc1 | 1750 nM | 4270 nM |
| COc1cc(F)c(F)c(Nc2ccc(I)cc2F)c1NS(=O)(=O)C1(CC(O)CO)CC1 (centres undefined) | 14400 nM | 47700 nM |
| Cc1cc2nc3c4cc(C#N)ccc4n(CCN(C)C)c3nc2cc1C | 1330 nM | 3910 nM |
| COc1cc([C@@H]2c3cc4c(cc3[C@@H](OC3OC5COC(C)OC5C(O)C3O)[C@H]3COC(=O)[C@H]23)OCO4)cc(OC)c1O (some centres undefined) | 2730 nM and 2120 nM | 22300 nM and 18700 nM |
| COc1ccc([C@@H]2[C@@H](Cl)C(=O)N2c2cc(OC)c(OC)c(OC)c2)cc1C | 41.4 nM | > 100000 nM |
